Results: US20230212526A1, “PLURIPOTENT STEM CELL-DERIVED HEART ORGANOID” (Board of Trustees of Michigan State University, priority 2020, published 2023)

Columns and labels:
[1] = system: human heart organoids (hHOs); test: Second CHIR99021 exposure on day 7: epicardial cell and cardiomyocyte formation in hHOs (confocal quantification); assay type: cell-based
Description: Self-assembling hHO differentiation. Accutase® (Innovative Cell Technologies) was used to dissociate PSCs for spheroid formation. After dissociation, cells were centrifuged at 300 g for 5 minutes and resuspended in Essential 8™ Flex medium containing 2 μM ROCK inhibitor Thiazovivin (Millipore Sigma). hPSCs were then counted using a Moxi Cell Counter (Orflo Technologies) and seeded at 10000 cells/well in round bottom ultra-low attachment 96-well plates (Costar) on day −2. The plate was then centrifuged at 100 g for 3 minutes and placed in an incubator at 37° C. and 5% CO2. After 24 hours (day −1), 50 μl of media was carefully removed from each well and 200 μl of fresh Essential 8™ Flex medium was added for a final volume of 250 μl/well. The plate was returned to the incubator for a further 24 hours. On day 0, 166 μl (approximately ⅔ of total well volume) of media was removed from each well and 166 μl of RPMI 1640 with B27™ Supplement, minus insulin (Gibco) containing CHIR99021 (Selleck) was added at a final concentration of 4 μM/well along with BMP4 at 0.36 pM (1.25 ng/ml) and ActA at 0.08 pM (1 ng/ml) for 24 hours. On day 1, 166 μl of media was removed and replaced with fresh RPMI 1640 with B27™ Supplement, minus insulin. On day 2, RPMI 1640 with B27™ Supplement, minus insulin containing Wnt-059 (Selleck) was added for a final concentration of 2 μM Wnt-059, and the samples were incubated for 48 hours. The media was changed on day 4 and day 6. On day 6, media was changed to RPMI 1640 with B27™ Supplement (Gibco). […] Subsequently, media was changed every 48 hours until organoids were ready for analysis. Diabetic conditions were simulated by using basal RPMI media with 11.1 mM glucose and 58 nM insulin and compared with control media containing 3.5 mM glucose and 170 pM insulin.
Immunofluorescence. hHOs were transferred to microcentrifuge tubes (Eppendorf) using a cut 1000-μL pipette tip to avoid disruption to the organoids and fixed in 4% paraformaldehyde solution (dissolved in PBS) for 30 minutes at room temperature. […]
(§1) Confocal microscopy and image analysis. Samples were imaged using two confocal laser scanning microscopes (Nikon Instruments A1 Confocal Laser Microscope; Zeiss LSM 880 NLO Confocal Microscope System) and images were analyzed using Fiji (hypertext transfer protocol secure//imagej.net/Fiji). For tissue region quantification in the organoids, DAPI positive cells were used for normalization against the target cell marker of interest across three z-planes throughout each organoid. […]

[2] = system: human heart organoids (hHOs); test: Cardiomyocyte differentiation in hHOs after initial CHIR99021 exposure (day 0, 24 hours), confocal TNNT2 quantification and beating; assay type: cell-based; details: for TNNT2+ cells (cardiomyocyte content): read at day 15
Description: Self-assembling hHO differentiation. Accutase® (Innovative Cell Technologies) was used to dissociate PSCs for spheroid formation. After dissociation, cells were centrifuged at 300 g for 5 minutes and resuspended in Essential 8™ Flex medium containing 2 μM ROCK inhibitor Thiazovivin (Millipore Sigma). hPSCs were then counted using a Moxi Cell Counter (Orflo Technologies) and seeded at 10000 cells/well in round bottom ultra-low attachment 96-well plates (Costar) on day −2. The plate was then centrifuged at 100 g for 3 minutes and placed in an incubator at 37° C. and 5% CO2. After 24 hours (day −1), 50 μl of media was carefully removed from each well and 200 μl of fresh Essential 8™ Flex medium was added for a final volume of 250 μl/well. The plate was returned to the incubator for a further 24 hours. […] On day 1, 166 μl of media was removed and replaced with fresh RPMI 1640 with B27™ Supplement, minus insulin. On day 2, RPMI 1640 with B27™ Supplement, minus insulin containing Wnt-059 (Selleck) was added for a final concentration of 2 μM Wnt-059, and the samples were incubated for 48 hours. The media was changed on day 4 and day 6. On day 6, media was changed to RPMI 1640 with B27™ Supplement (Gibco). On day 7, a second 4 μM CHIR99021 exposure was conducted for 1 hour in RPMI 1640 with B27™ Supplement. Subsequently, media was changed every 48 hours until organoids were ready for analysis. Diabetic conditions were simulated by using basal RPMI media with 11.1 mM glucose and 58 nM insulin and compared with control media containing 3.5 mM glucose and 170 pM insulin.
Immunofluorescence. hHOs were transferred to microcentrifuge tubes (Eppendorf) using a cut 1000-μL pipette tip to avoid disruption to the organoids and fixed in 4% paraformaldehyde solution (dissolved in PBS) for 30 minutes at room temperature. Fixation was followed by three washes in PBS-Glycine (20 mM) and incubation in blocking/permeabilization solution (10% Donkey Normal Serum, 0.5% Triton™ X-100, 0.5% BSA in PBS) on a thermal mixer (Thermo Scientific) at 300 RPM at 4° C. overnight. hHOs were then washed three times in PBS and incubated with primary antibodies (see Table 1) in Antibody Solution (1% Donkey Normal Serum, 0.5% Triton™ X-100, 0.5% BSA in PBS) on a thermal mixer at 300 RPM at 4° C. for 24 hours. […]
as §1

[3] = system: FlipGFP transgenic iPSC-L1 derived hHOs; test: FlipGFP apoptosis reporter in hHOs (effector caspase activation); assay type: cell-based, human; details: 5 μM doxorubicin, positive control
Description: Lentiviral transduction. FlipGFP plasmid (Vector Builder) was transduced into a L1 iPSC line using a ZymoPURE™ II Plasmid Midiprep Kit (Fisher Scientific) according to manufacturer instructions. HEK293t were cultured in D10 media (DMEM+10% FBS+1% P/S) and later switched with reduced serum OptiMem™ (Gibco, Fisher Scientific) for 1 hour. Lipofectamine mixture (100 μl Lipofectamine 2000 (Thermo Fisher Scientific)+4 ml OptiMem™ sitting at room temperature for 5 minutes) was mixed with PLUS™ reagent mixture (200 μl PLUS™ reagent (Invitrogen, Fisher Scientific)+4 ml OptiMem™+20 μg lentiCRISPR plasmid+10 μg pMD2.gpVSVg (or pVSVgpMD2.g)+15 μg psPAX2) and was then added to the HEK293t cells and allowed to incubate at 37° C. for 6 hours. Following this, the media was changed to 30 ml D10+1% BSA per flask, without antibiotics. After 48-60 hours, the media was collected and centrifuged at 3000 rpm at 4° C. for 10 minutes. The supernatant was transferred to an Amicon® Filter Unit (Millipore-Sigma) and spun in a tabletop centrifuge at 3200 g for 30 minutes at 4° C. The flow through was dumped, and the process was repeated. The concentrated virus was aliquoted and stored at −80° C. Virus aliquot and polybrene (Fisher Scientific) were thawed at 37° C. Virus and polybrene were delivered to iPSC-L1s at low- to mid-confluences and incubated overnight. […]

[4] = single 2 μM CHIR99021 for 1 hour on day 7, read at day 15

Cc1c[nH]c(-c2cnc(NCCNc3ccc(C#N)cn3)nc2-c2ccc(Cl)cc2Cl)n1 [CHIR99021]
formation of cardiac cell types other than epicardial cells (cardiomyocytes) ([1]; high concentrations or long exposure times of second exposure): marked inhibition | formation of proepicardium and epicardial cells ([1]; second exposure on day 7, 2-8 μM, 1-48 hours): robustly promoted the formation of proepicardium and epicardial cells | cardiomyocytes (TNNT2+ area) [1, 4]: 60% | epicardial cells (WT1+/TJP1+ area) [1, 4]: 10-20% | TNNT2+ cells (cardiomyocyte content) ([2]; 4 μM CHIR99021 on day 0 for 24 hours): 64±5% | functional properties (beats per minute, percentage of beating hHOs) ([2]; 4 μM versus 6.6 μM and 8 μM CHIR99021): best functional properties of the three concentrations | TNNT2+ cells (cardiomyocyte content) ([2]; 6.6 μM CHIR99021 on day 0 for 24 hours): 9.6±5% | TNNT2+ cells (cardiomyocyte content) ([2]; 8 μM CHIR99021 on day 0 for 24 hours): 2.4±2%

COc1cccc2c1C(=O)c1c(O)c3c(c(O)c1C2=O)C[C@@](O)(C(=O)CO)C[C@@H]3O[C@H]1C[C@H](N)[C@H](O)[C@H](C)O1 [doxorubicin]
apoptosis (FlipGFP fluorescence) [3]: high apoptosis | apoptosis (FlipGFP fluorescence) ([3]; listed as Doxorubicin): evident signs of cell death
